Results published in patent US20210093531A1, “DERIVATIVES OF MENTHOL AND USES THEREOF” (Board of Trustees of Northern Illinois University, priority 2019, published 2021).
Entries after “also recorded” stand apart in the source; their conditions may differ. Marks after values point to notes of the source that are not given here.

What was measured:
Format in all cases: in vivo
[1] = organoleptic evaluation in ethanol, propylene glycol and water; details: for organoleptic properties, EtOH / organoleptic properties, PG / organoleptic properties (entry names no solvent): 100 ppm; for organoleptic properties, EtOH: ethanol cut in aqueous solution; for organoleptic properties, PG: propylene glycol cut in aqueous solution; for organoleptic properties (entry names no solvent): entry without solvent suffix
Experimental: Stock solutions for each solution was prepared as described below to afinal concentration of 100 ppm.
c. Mix well to achieve final concentration of 100 ppm.
a. Prepare a stock solution of 2.5% solution in PG by adding 25 mg of menthol analog in 1 gram of PG (mix well).
Organoleptic properties by compound are listed below for menthol derivatives in ethanol, propylene glycol, and water: […]

trained panelists [2] = test: time-intensity analysis of cooling, beverage model system; details: 100 ppm, 2-minute window
Experimental: In order to evaluate the potential use of menthol glycinates as […] different food, beverage and oral hygiene products, select compounds were incorporated in different application systems. A beverage model system, a lozenge and a mouthwash application were created, and time-intensity analysis was performed using trained discrimination analysis panelists. Time-Intensity (TI) is a temporal sensory method. During TI evaluations, assessors are asked to score the intensity of perception of a single attribute over consumption of the product. Compared to single point measurements, TI analysis can characterize the onset, decline and rates thereof, of particular sensory characteristics. This analysis may reveal rich information regarding the intensity of an attribute over the time domain and identify temporal perceptual differences among samples that can greatly impact the overall profile of a product. For each sample evaluation, a temporal curve is generated, based on duplication. The temporal curves for each panelist are combined to generate a combined curve for each product that is evaluated. The following distinct parameters were calculated: Imax: peak intensity or maximum observed intensity on the whole curve; […]: time point where the reaction to the stimulus is first perceived on the curve; Tmax: time position of the peak intensity on the curve; Tplateau: protraction of maximum intensity or duration of maximum intensity; Text: time point of extinction of the perception of the stimulus, defined as the position in time after the peak intensity where the measured intensity disappears (or the end of evaluation window); Iext: intensity at time of extinction or end of evaluation; R increase: slope or rate of intensity increase between […] and Tmax; R decrease: slope or rate of intensity decrease between Tmax and Text; and Area: the total area under the time-intensity curve. The formula detailed in Table 6 was employed to create a simple beverage model system to evaluate menthol glycinates of interest using time-intensity analysis. [table] For time-intensity (T-I) evaluation of the cooling attribute of the model beverage system 8 panelists were recruited (2 male, 6 female). Panelists were trained in basic taste descriptive analysis. A sweetness reference series (intensity range 2-12) was provided to be used as cross-modality reference to aid in scaling the intensity of the cool attribute present in the model beverage samples. Panelists evaluated samples in duplicates and all sample were presented blinded and in a randomized order using a 3-digit code. Panelists were instructed to hold the sample in their mouths for 30 seconds and then expectorate. During the hold period panelists were instructed to note cooling onset and intensity. After expectorating, the panelists continued to report cooling intensity at predetermined time points throughout an evaluation window of 2 minutes. Samples were presented pre-weighted, and panelists were instructed to evaluate the entire amount of sample to ensure uniformity among panelists and replicate evaluations. Evaluations were performed with at least 4 hours between them to ensure no carry over. Data analysis for generation of T-I statistics and ANOVA analysis to determine significant difference among samples was performed using R STUDIO.

trained panelists [3] = test: time-intensity analysis of cooling, mouthwash application; details: for Iext (cooling intensity at end of evaluation): 15 minutes after expectoration
Experimental: In order to evaluate the potential use of menthol glycinates as […] different food, beverage and oral hygiene products, select compounds were incorporated in different application systems. A beverage model system, a lozenge and a mouthwash application were created, and time-intensity analysis was performed using trained discrimination analysis panelists. Time-Intensity (TI) is a temporal sensory method. During TI evaluations, assessors are asked to score the intensity of perception of a single attribute over consumption of the product. Compared to single point measurements, TI analysis can characterize the onset, decline and rates thereof, of particular sensory characteristics. This analysis may reveal rich information regarding the intensity of an attribute over the time domain and identify temporal perceptual differences among samples that can greatly impact the overall profile of a product. For each sample evaluation, a temporal curve is generated, based on duplication. The temporal curves for each panelist are combined to generate a combined curve for each product that is evaluated. The following distinct parameters were calculated: Imax: peak intensity or maximum observed intensity on the whole curve; […]: time point where the reaction to the stimulus is first perceived on the curve; Tmax: time position of the peak intensity on the curve; Tplateau: protraction of maximum intensity or duration of maximum intensity; Text: time point of extinction of the perception of the stimulus, defined as the position in time after the peak intensity where the measured intensity disappears (or the end of evaluation window); Iext: intensity at time of extinction or end of evaluation; R increase: slope or rate of intensity increase between […] and Tmax; R decrease: slope or rate of intensity decrease between Tmax and Text; and Area: the total area under the time-intensity curve. The formula shown in Table 8 was employed to create a mouthwash product to evaluate […] of interest using time-Intensity analysis. [table] The following test compounds were evaluated: menthol, XI-I-60, RK-2-10, XI-I-65, DK-1-50, and XI-2-73. For time-intensity (T-I) evaluation of the cooling attributes of mouthwash products, 8 panelists were recruited (2 male, 6 female). Panelists were trained in basic taste descriptive analysis. A sweetness reference series (intensity range 2-12) was provided to be used as cross-modality reference to aid in scaling the intensity of the cooling attribute present in the mouthwash samples. Panelists evaluated samples in duplicates and all sample were presented blinded and in a randomized order using a 3-digit code. Panelist evaluated 15 ml of mouthwash at a time and were instructed to rinse for 30 seconds and expectorate. Panelists were instructed to provide cooling intensities before and after expectoration. For the time before expectoration, evaluation started upon introducing the sample and every 10 seconds thereafter. After expectoration, the evaluation continued for 15 minutes and panelists provided cooling intensity ratings at predetermined times. Due to the unique nature of this product and the interest in prolonging the cooling attribute long after consumption, an additional parameter led was evaluated among samples via ANOVA. This parameter is the cooling intensity at time of extinction or in our case the end of evaluation. Data analysis for generation of T-I statistics and ANOVA analysis to determine significant difference among samples was performed using R STUDIO.

[4] = after expectoration for 15 minutes (Table 9b)
[5] = rinse phase 30 seconds (Table 9a)

Compound: CCCCN(CCCC)CC(=O)O[C@@H]1C[C@H](C)CC[C@H]1C(C)C [Product 10, (1R,2S,5R)-2-Isopropyl-5-methylcyclohexyl 2-(dibutylamino)acetate]
- organoleptic properties, EtOH ([1]; listed as RK-2-10): delay onset mild cooling (post 20 seconds) with a; also recorded: slight tingling and sweetness that extended past 1
- organoleptic properties, PG ([1]; listed as RK-2-10): Very low intensity of cooling that slowly builds with; also recorded: a skin tingling effect. Could be a good candidate
- organoleptic properties (entry names no solvent) ([1]; listed as RK-2-10): exhibited a delayed onset cooling and an upfront; also recorded: bitterness from PG
- Rdec (trained panelists [2]): 0.06^a
- Rinc (trained panelists [2]): 0.04^b
- Tstart (trained panelists [2]): 6.1^b
- Iext (cooling intensity at end of evaluation) (trained panelists [3]): 0.9^a
- AUC (trained panelists [3]; [4]): 4105.91^ac
- I max (trained panelists [3]; [4]): 12.65^ab
- Rdec (trained panelists [3]; [4]): −0.01^b
- Tmax (trained panelists [3]; [4]): 30.00^a
- Tstart (trained panelists [3]; [4]): 30.00^a
- AUC (trained panelists [3]; [5]): 182.05^a
- Imax (trained panelists [3]; [5]): 12.82^a
- Rinc (trained panelists [3]; [5]): 0.18^b
- Tstart (trained panelists [3]; [5]): 10.91^a

Compound: CC(C)[C@@H]1CC[C@@H](C)C[C@H]1OC(=O)CN(C)C(C)C [Product 16, (1R,2S,5R)-2-Isopropyl-5-methylcyclohexyl 2-(isopropyl(methyl)amino)acetate]
- organoleptic properties, EtOH ([1]; listed as XI-1-50): initial alcohol cooling burn with late onset cooling; also recorded: at 20 seconds and deep cooling at 60 seconds
- organoleptic properties, PG ([1]; listed as XI-1-50): initial bitterness from PG cooling at 30 seconds
- organoleptic properties (entry names no solvent) ([1]; listed as XI-1-50): slight delay in cooling after 20 seconds with some; also recorded: upfront bitterness coming from PG. Very intense; also recorded: building cooling post 50 seconds
- Rdec (trained panelists [2]): 0.02^a
- Rinc (trained panelists [2]): 0.05^b
- Tstart (trained panelists [2]): 16^c
- Iext (cooling intensity at end of evaluation) (trained panelists [3]): 2.33^b
- AUC (trained panelists [3]; [4]): 5565.00^b
- I max (trained panelists [3]; [4]): 13.37^ab
- Rdec (trained panelists [3]; [4]): −0.01^b
- Rinc (trained panelists [3]; [4]): 0.03^b
- Tmax (trained panelists [3]; [4]): 32.73^a
- Tstart (trained panelists [3]; [4]): 30.00^a
- AUC (trained panelists [3]; [5]): 180.91^a
- Imax (trained panelists [3]; [5]): 13.09^a
- Rdec (trained panelists [3]; [5]): 0.00^b
- Rinc (trained panelists [3]; [5]): 0.23^a
- Tstart (trained panelists [3]; [5]): 10.00^a

Compound: (1R,2S,5R)-2-Isopropyl-5-methylcyclohexyl 2-(isopropylamino)acetate [Product 7]
- organoleptic properties, EtOH ([1]; listed as XI-1-60): cooling started at 20 seconds with slight alcohol; also recorded: burn, very intense cooling profile from 20 seconds
- organoleptic properties, PG ([1]; listed as XI-1-60): Up front cooling at 10 seconds with stronger cooling; also recorded: at 20 seconds, much more intense cooling than XI-
- Rdec (trained panelists [2]): 0.02^a
- Rinc (trained panelists [2]): 0.06^b
- Tstart (trained panelists [2]): 16^c
- Iext (cooling intensity at end of evaluation) (trained panelists [3]): 1.23^a
- AUC (trained panelists [3]; [4]): 4344.50^ac
- I max (trained panelists [3]; [4]): 12.33^ab
- Rdec (trained panelists [3]; [4]): −0.01^b
- Rinc (trained panelists [3]; [4]): 0.00^a
- Tmax (trained panelists [3]; [4]): 36.00^a
- Tstart (trained panelists [3]; [4]): 30.00^a
- AUC (trained panelists [3]; [5]): 170.50^a
- Imax (trained panelists [3]; [5]): 12.43^a
- Rinc (trained panelists [3]; [5]): 0.20^a
- Tstart (trained panelists [3]; [5]): 11.00^a

Compound: CC1CCC(C(C)C)C(O)C1 (stereo not drawn) [Menthol, menthol]
- organoleptic properties of menthol ([1]; simple solutions of PG and water or ethanol): very strong, instantaneous cooling effect
- Imax (peak cooling intensity) (trained panelists [2]; 2% propylene glycol in water): 5^a
- AUC (trained panelists [2]): 429.1^a
- Rdec (trained panelists [2]): 0.03^a
- Rinc (trained panelists [2]): 0.12^a
- Tplateau (duration of maximum intensity) (trained panelists [2]): 23.3^a
- Tstart (trained panelists [2]): 10^a
- Iext (cooling intensity at end of evaluation) (trained panelists [3]): 1^a
- AUC (trained panelists [3]; [4]): 3608.38^a
- I max (trained panelists [3]; [4]): 12.01^a^
- Rdec (trained panelists [3]; [4]): −0.03^a
- Rinc (trained panelists [3]; [4]): 0.00^a
- Tmax (trained panelists [3]; [4]): 33.53^a
- Tstart (trained panelists [3]; [4]): 30.00^a
- AUC (trained panelists [3]; [5]): 168.97^a
- Imax (trained panelists [3]; [5]): 12.56^a
- Rdec (trained panelists [3]; [5]): −0.09^a
- Rinc (trained panelists [3]; [5]): 0.21^a
- Tstart (trained panelists [3]; [5]): 10.88^a
